This note sets out measurements from patent US6376552B1, “Treatment of gallstones” (Knoll Pharmaceutical Company, priority 1999, dated 2002).

The assay concerns gallstones. Put plainly: administration to a patient during weight loss, development of gallstones. It is filed as in vivo, human. The conditions noted are these: 10 mg orally once daily in the morning while patient is losing weight. The protocol:
Sibutramine 10 mg orally once daily is administered in the morning during the time a patient is losing weight.

In the case of `CC(C)CC(N(C)C)C1(c2ccc(Cl)cc2)CCC1` (stereo not shown) [Sibutramine, N,N-dimethyl-1-[1-(4-chlorophenyl)cyclobutyl]-3-methylbutylamine], the development of gallstones entry is reported as “does not develop gallstones”.
